The NIST ThermoML archive (doi:10.1021/je0602263)

Experiment: xn = mol fraction of the nth substance listed
Details: 298.15 K, 101 kPa, Liquid

CC(C)CC(C)(C)C [2,2,4-trimethylpentane] + COC(=O)OC
Details | mass density [kg/m3]
x2 = 0 | 688.04

c1ccccc1 [benzene] + COC(=O)OC
Details | mass density [kg/m3]
x2 = 0 | 873.56

COC(=O)OC [dimethyl carbonate] + CC(C)CC(C)(C)C
Details | mass density [kg/m3]
x1 = 0.0497 | 696.81
x1 = 0.1 | 706.22
x1 = 0.15 | 716.12
x1 = 0.2001 | 726.95
x1 = 0.2499 | 738.38
x1 = 0.2998 | 750.67
x1 = 0.3498 | 763.75
x1 = 0.4004 | 777.96
x1 = 0.4498 | 792.89
x1 = 0.5002 | 809.29
x1 = 0.5499 | 826.46
x1 = 0.5998 | 845.2
x1 = 0.6502 | 865.43
x1 = 0.7 | 887.02
x1 = 0.75 | 910.31
x1 = 0.8 | 935.94
x1 = 0.8499 | 963.69
x1 = 0.8999 | 993.77
x1 = 0.9498 | 1026.79
x1 = 1 | 1063.19

COC(=O)OC [dimethyl carbonate] + CCCCCCC
Details | mass density [kg/m3]
x1 = 0.0501 | 690.16
x1 = 0.0999 | 700.47
x1 = 0.15 | 711.7
x1 = 0.1998 | 723.65
x1 = 0.2501 | 736.28
x1 = 0.2999 | 749.59
x1 = 0.3501 | 763.95
x1 = 0.4 | 779.05
x1 = 0.4499 | 795.07
x1 = 0.5001 | 812.18
x1 = 0.5498 | 830.25
x1 = 0.6 | 849.67
x1 = 0.6499 | 870.23
x1 = 0.7001 | 892.23
x1 = 0.75 | 915.72
x1 = 0.8 | 941.09
x1 = 0.8501 | 968.3
x1 = 0.9001 | 997.61
x1 = 0.9501 | 1029.09
x1 = 1 | 1063.19

COC(=O)OC [dimethyl carbonate] + Cc1ccccc1
Details | mass density [kg/m3]
x1 = 0.0498 | 869.9
x1 = 0.0998 | 877.68
x1 = 0.15 | 885.75
x1 = 0.1999 | 893.96
x1 = 0.2498 | 902.39
x1 = 0.2999 | 911.1
x1 = 0.3498 | 919.98
x1 = 0.4 | 929.22
x1 = 0.4498 | 938.57
x1 = 0.4999 | 948.26
x1 = 0.5499 | 958.27
x1 = 0.5999 | 968.51
x1 = 0.65 | 979.06
x1 = 0.7 | 989.94
x1 = 0.7499 | 1001.14
x1 = 0.8001 | 1012.77
x1 = 0.8501 | 1024.73
x1 = 0.8998 | 1037.03
x1 = 0.9502 | 1049.89
x1 = 1 | 1063.19

COC(=O)OC [dimethyl carbonate] + c1ccccc1
Details | mass density [kg/m3]
x1 = 0.0499 | 882
x1 = 0.1 | 890.57
x1 = 0.15 | 899.18
x1 = 0.2001 | 907.93
x1 = 0.2499 | 916.61
x1 = 0.3 | 925.59
x1 = 0.3498 | 934.53
x1 = 0.4 | 943.7
x1 = 0.45 | 952.89
x1 = 0.5001 | 962.25
x1 = 0.55 | 971.69
x1 = 0.6 | 981.28
x1 = 0.6499 | 990.96
x1 = 0.7001 | 1000.84
x1 = 0.7501 | 1010.88
x1 = 0.8001 | 1021.01
x1 = 0.8498 | 1031.36
x1 = 0.8999 | 1041.69
x1 = 0.9501 | 1052.35
x1 = 1 | 1063.19

CCCCCCC [heptane] + COC(=O)OC
Details | mass density [kg/m3]
x2 = 0 | 680.52

Cc1ccccc1 [toluene] + COC(=O)OC
Details | mass density [kg/m3]
x2 = 0 | 862.5
